Like-named read-outs stand apart in the source and are kept apart here.
Assays:
[1] = pH of 1% by wt. aqueous solutions; assay type: physicochemical
[2] = Aqueous slurry pH (10% slurry, 25 C); assay type: physicochemical
Description: Various inventive and comparative compounds were formulated with three separate toilet bar bases, 1, 2, and 3 at the 10% by wt. level and their aqueous slurry pH (see method below) was compared to a control shown in table 1. Inventive latent acidifiers are designated “I” and comparative compounds are designated “C”. The bar bases were formulated by blending all ingredients except the latent acidifier for about 30-40 minutes at temperatures of 180-230 F. After that, the latent acidifier is added and mixed for another few minutes until a uniform mixture is obtained. […] The latent acidifier could also be added in the chip mixer after the batch has been cooled and solidified in a spray dryer or a chill roll. This is followed by extrusion and stamping into a bar.
Method for Measuring Aqueous Slurry pH
Nine grams of the base formula and one gram of the latent acidifier (or a comparative compound) were blended together with 90 g of water to create a 10% slurry. The pH of the slurry was then measured at 25 C.

[3] = 1% by wt. aqueous solution of the compound
[4] = compound at 10% by wt. in toilet bar Base 1, 10% slurry, 25 C
[5] = compound at 10% by wt. in toilet bar Base 2, 10% slurry, 25 C
[6] = compound at 10% by wt. in toilet bar Base 3, 10% slurry, 25 C

| Compound | pH of 1% Solution ([1]; pH 1) | Aqueous slurry pH, Base 1 [2] | Aqueous slurry pH, Base 2 [2] | Aqueous slurry pH, Base 3 [2] | pH of 1% Solution [1, 3] | Aqueous slurry pH, Base 1 [2, 4] | Aqueous slurry pH, Base 2 [2, 5] | Aqueous slurry pH, Base 3 [2, 6] | Aqueous slurry pH of bars [2] | Latent acidification effect [2] |
| --- | --- | --- | --- | --- | --- | --- | --- | --- | --- | --- |
| CC(=O)O.N [Ammonium Acetate] | 6.9 | 6.8 | 8.9 | 9.5 | – | – | – | – | – | – |
| Cl.N [Ammonium Chloride] | – | – | – | – | 4.9 | 6.5 | 8.7 | 9.1 | – | – |
| N.N.N.O=P(O)(O)O [Ammonium Phosphate] | 4.2 | 6.1 | 7.6 | 8.7 | – | – | – | – | – | – |
| N.N.O=S(=O)(O)O [Ammonium Sulfate] | – | – | – | – | 5.0 | 6.7 | 8.9 | 9.4 | – | – |
| CC(=O)[O-].CC(=O)[O-].[Ca+2] [Calcium Acetate] | 8.2 | 5.2 | 8.1 | 10.1 | – | – | – | – | – | – |
| O=C([O-])[O-].[Ca+2] [Calcium Carbonate, reference compound] | 9.2 | 7.0 | 9.0 | 10.6 | – | – | – | – | – | – |
| [Ca+2].[Cl-].[Cl-] [Calcium Chloride] | 9.3 | 4.2 | 6.9 | 9.8 | – | – | – | – | – | – |
| [Ca+2].[OH-].[OH-] [Calcium Hydroxide, reference compound] | 11.8 | 11.9 | 12.1 | 11.9 | – | – | – | – | – | – |
| O=[N+]([O-])[O-].O=[N+]([O-])[O-].[Ca+2] [Calcium Nitrate] | 5.3 | 5.2 | 8.6 | 10.1 | – | – | – | – | – | – |
| O=S(=O)([O-])[O-].[Ca+2] [Calcium Sulfate] | – | 4.9 | 8.8 | 10.2 | – | – | – | – | significant drop in pH | latent acidification effect |
| O=S(=O)([O-])[O-].O=S(=O)([O-])[O-].O=S(=O)([O-])[O-].[Fe+3].[Fe+3] [Ferric Sulfate] | 1.7 | 1.5 | 7.5 | 9.1 | – | – | – | – | – | – |
| [Cl-].[Cl-].[Mg+2] [Magnesium Chloride] | 5.2 | 5.9 | 8.4 | 10.0 | – | – | – | – | – | – |
| O=S(=O)([O-])[O-].[Mg+2] [Magnesium Sulfate] | 6.5 | 6.2 | 8.6 | 10.2 | – | – | – | – | – | – |
| O=C([O-])O.[Na+] [Sodium Bicarbonate, reference compound] | – | – | – | – | 8.3 | 7.5 | 8.8 | 9.4 | – | – |
| [Cl-].[Na+] [Sodium Chloride, reference compound] | – | – | – | – | 8.1 | 6.7 | 8.7 | 10.1 | – | – |
| O=P(O)(O)O [Sodium Phosphate, reference compound] | 9.1 | 7.2 | 8.9 | 10.2 | – | – | – | – | – | – |
| O=S(=O)([O-])[O-].[Na+].[Na+] [Sodium Sulfate, reference compound] | 9.1 | 6.9 | 8.9 | 10.3 | – | – | – | – | – | – |
| Calcium Phosphate | 3.7 | 5.4 | 7.2 | 8.6 | – | – | – | – | – | – |

From patent publication US6809070B2, “Toilet bar having a latent acidifier” (Unilever Home & Personal Care USA, division of Conopco, Inc., priority 2001, dated 2004)
